Measurements published in patent US20220117867A1, “ANTIMICROBIAL ACTIVITY OF FATTY ACID ESTERS AND COMBINATIONS THEREOF” (SYMRISE AG, priority 2019, published 2022).
In brackets after ≈: the same amount, converted by molar mass.

Assays:
Type in all cases: cell-based
[1] = system: Epidermophyton floccosum; test: Minimum Inhibitory Concentration (MIC) Method B, DIN 58940; Synergy Index according to Kull; details: single substance
Procedure: (§1) B) Minimum Inhibitory Concentration (MIC) Method B
5 ml of the appropriate dilution of the test product is mixed with 0.1 ml of test suspension and mixed well. After the required action times, the mixture was mixed again. Each 0.1 ml were removed and placed in 5 ml of CSL-bouillon without neutralizing agents.
(§2) In order to calculate the synergy index with MIC values, the Kull equation (I) was used as follows:
(§3) SI=(MICmixture×PA)/MICA+(MICmixture×PB)/MICB (I)
SI is the Synergy Index according to Kull
MICA is the MIC value for Substance A
MICB is the MIC value for Substance B
MICmixture is the MIC value for the mixture of substances A and B
PA is the proportion of the substance A in the mixture
PB is the proportion of the substance B in the mixture

[2] = system: Candida albicans; test: Preservative Efficacy Test (method C)
Procedure: (§4) C) Preservative Efficacy Test
(§5) Test conditions: Sample (1% test substance in adequate formulation (o/w emulsion)) was inoculated with 0.1 ml of the microbial suspensions, homogenized, and incubated at 20° C.-25° C. Colony count was determined after 2, 7, 14, and 28 days of incubation through plating on adequate solid medium.
(§6) 3-hydroxypropyl caprylate was tested in a potential formulation against the microorganisms Escherichia coli, Pseudomonas aeruginosa, Staphylococcus aureus, and Candida albicans using method C. Resulting colony counts are depicted in Table 4.

[3] = system: Pseudomonas aeruginosa; test: Preservative Efficacy Test (method C); details: P. aeruginosa; for Colony counts: 1% test substance in o/w emulsion; for Relative colony counts: relative to inoculum = 1.0000
Procedure: as §4, §5, §6

[4] = system: Staphylococcus aureus; test: Preservative Efficacy Test (method C); details: S. aureus; for Colony counts: 1% test substance in o/w emulsion; for Relative colony counts: relative to inoculum = 1.0000
Procedure: as §4, §5, §6

[5] = system: Escherichia coli; test: Preservative Efficacy Test (method C); details: E. coli; for Colony counts: 1% test substance in o/w emulsion; for Relative colony counts: relative to inoculum = 1.0000
Procedure: as §4, §5, §6

[6] = system: Corynebacterium xerosis; test: Minimum Inhibitory Concentration (MIC) Method A; details: read-out: MIC
Procedure: (§7) A) Minimum Inhibitory Concentration (MIC) Method A The MIC test is a test on growth inhibition. Estimation of Minimum Inhibitory Concentration (MIC) is executed in 96 well plates. Through the comparison of bacterial growth curves with positive and negative controls via optical density (OD), different concentrations of given test substances are evaluated. Bacteria are cultivated under adjusted conditions based on information of the German Collection of Microorganisms and Cell Cultures (DSMZ) and stored in 50% Glycerol prior to use. Afterwards, the following method was applied: Adding growth medium (according to microorganism) to each well of the microplate. Adding the test-substances in different concentrations, positive controls (water controls only with medium) and negative controls (benchmarks according to organism). Adding the microorganism in a concentration of 10^6 CFU/ml (CFU=colony forming units). Incubation of the microplates at appropriate conditions. Aerobic microorganism: optical density is continuously measured (microplate reader) during incubation. Anaerobic microorganism: incubation in an anaerobic chamber, measurement of the optical density at the end of the incubation, comparison of the results with positive and negative controls. According to resulting growth curves, substance concentrations are labelled either as inhibiting or normal growth and MIC is defined as the lowest concentration where a clear inhibition is visible. Experiments at concentration limits (highest concentration labelled as growth and lowest concentration labelled as inhibiting) are performed at least twice.

[7] = system: Staphylococcus hominis; test: Minimum Inhibitory Concentration (MIC) Method A
Procedure: as §7

[8] = system: Candida albicans; test: Minimum Inhibitory Concentration (MIC) Method A
Procedure: as §7

[9] = system: Prevotella intermedia; test: Minimum Inhibitory Concentration (MIC) Method A
Procedure: as §7

[10] = system: Porphyromonas gingivalis; test: Minimum Inhibitory Concentration (MIC) Method A
Procedure: as §7

[11] = system: Fusobacterium nucleatum; test: Minimum Inhibitory Concentration (MIC) Method A
Procedure: as §7

[12] = system: human sebaceous glands; test: Sebum secretion in cultured micro-dissected human sebaceous glands; details: human sebaceous glands of Donor 1 and Donor 2; six days culture; different concentrations; vs untreated control
Procedure: Additional tests were performed with human sebaceous glands in order to verify the modulatory activity of a compound on sebum secretion. For this sebaceous glands had been micro-dissected and cultured with medium. The medium without any supplement served as untreated control. Medium with 5 μM Capsaicin served as positive control. Additionally, culture medium was supplemented with different concentrations of 3-hydroxypropyl caprylate. After six days the sebaceous glands were collected and lipids and proteins quantified. The total lipid amount being representative of sebum production was obtained by normalizing the quantified lipids upon the quantified proteins (i.e. mg of lipids/mg of proteins).

[13] = system: Staphylococcus hominis; test: Minimum Inhibitory Concentration (MIC) Method B, DIN 58940; Synergy Index according to Kull; details: Method B (Example 5), S. hominis, single substance
Procedure: as §1
(§8) Test conditions: Evaluation of bactericidal and fungicidal activity in qualitative suspension test (VAH-standard methods, 04-2015). 5 ml of the appropriate dilution of the test product is mixed with 0.1 ml of test suspension and mixed well. After the required action times, the mixture was mixed again. Each 0.1 ml were removed and placed in 5 ml of CSL-bouillon without neutralizing agents.
as §2, §3
(§9) The synergistic activity of 3-hydroxypropyl caprylate and glyceryl caprylate on several bacterial and fungal reference strains for application in either Deodorant application or as preservative was determined by measuring minimum inhibitory concentrations (MIC values) according to DIN 58940 and method B (method section above).

[14] = system: Aspergillus brasiliensis; test: as above; details: Method B (Example 5), A. brasiliensis, single substance
Procedure: as §1, §8, §2, §3, §9

[15] = system: Escherichia coli; test: as above; details: Method B (Example 5), E. coli, single substance
Procedure: as §1, §8, §2, §3, §9

With `CCCCCCCC(=O)OCCCO` [3-hydroxypropyl caprylate] the MIC [1] was 500 µg/mL, the Colony counts ([2]; Day 2, 1% test substance in o/w emulsion, inoculum 4200000) was 330000 cfu/g formulation and the Relative colony counts ([2]; Day 2, relative to inoculum = 1.0000) was 0.0786. For the same compound, the Colony counts ([2]; Day 7, 1% test substance in o/w emulsion) was >10 cfu/g formulation, the Relative colony counts ([2]; Day 7, relative to inoculum = 1.0000) was 0.0000 and the Colony counts ([2]; Day 14, 1% test substance in o/w emulsion) was >10 cfu/g formulation. For the same compound, the Relative colony counts ([2]; Day 14, relative to inoculum = 1.0000) was 0.0000, the Colony counts ([2]; Day 28, 1% test substance in o/w emulsion) was >10 cfu/g formulation and the Relative colony counts ([2]; Day 28, relative to inoculum = 1.0000) was 0.0000. The Colony counts ([3]; Day 2, inoculum 4400000) was >10 cfu/g formulation, the Relative colony counts ([3]; Day 2) was 0.0000 and the Colony counts ([3]; Day 7) was >10 cfu/g formulation. For the same compound, the Relative colony counts ([3]; Day 7) was 0.0000, the Colony counts ([3]; Day 14) was >10 cfu/g formulation and the Relative colony counts ([3]; Day 14) was 0.0000. For the same compound, the Colony counts ([3]; Day 28) was >10 cfu/g formulation, the Relative colony counts ([3]; Day 28) was 0.0000 and the Colony counts ([4]; Day 2, inoculum 3500000) was 250000 cfu/g formulation. The Relative colony counts ([4]; Day 2) was 0.0714 fraction of inoculum, the Colony counts ([4]; Day 7) was >10 cfu/g formulation and the Relative colony counts ([4]; Day 7) was 0.0000 fraction of inoculum. For the same compound, the Colony counts ([4]; Day 14) was >10 cfu/g formulation, the Relative colony counts ([4]; Day 14) was 0.0000 fraction of inoculum and the Colony counts ([4]; Day 28) was >10 cfu/g formulation. For the same compound, the Relative colony counts ([4]; Day 28) was 0.0000 fraction of inoculum, the Colony counts ([5]; Day 2, inoculum 4500000) was 15 cfu/g formulation and the Relative colony counts ([5]; Day 2) was 0.0000. The Colony counts ([5]; Day 7) was >10 cfu/g formulation, the Relative colony counts ([5]; Day 7) was 0.0000 and the Colony counts ([5]; Day 14) was >10 cfu/g formulation. The Relative colony counts ([5]; Day 14) was 0.0000, the Colony counts ([5]; Day 28) was >10 cfu/g formulation and the Relative colony counts ([5]; Day 28) was 0.0000. It also gave an MIC [6] of 500 µg/mL (≈ 2470 µM), an MIC [7] of 1000 µg/mL (≈ 4940 µM) and an MIC [8] of 500 µg/mL (≈ 2470 µM). It also gave an MIC [9] of 125 µg/mL (≈ 618 µM), an MIC [10] of 250 µg/mL (≈ 1240 µM) and an MIC [11] of 250 µg/mL (≈ 1240 µM). For the same compound, the “relative change in total lipids (mg of lipids/mg of proteins), representative of sebum production” value [12] was “concentration dependent reduction of total lipids”, the MIC [13] was 1000 µg/mL and the MIC [14] was 1000 µg/mL. For the same compound, the MIC [15] was 1000 µg/mL.
